According to patent US8865734B2 (priority 2010, dated 2014):
Converted amounts (≈) assume the structure as drawn.

Assays:
[1] = test system: in vitro grown Mycobacteria (M. tuberculosis); assay: QUM: Quantification of in vitro grown Mycobacteria (in vitro growth fluorescence assay); assay type: cell-based; conditions: Mycobacterium tuberculosis; MIC, 80% bacterial growth inhibition; in vitro growth; read-out: QUM
Summary of the method: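 Mycobacterium tuberculosis grown in vitro was quantified by fluorescence across compound dose responses. MIC is defined as the minimum concentration producing 80% growth inhibition.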

[2] = test system: M. tuberculosis inside the host macrophage; assay: QIM: Quantification of Intracellular Mycobacteria (intracellular growth assay, phenotypic cell-based); conditions: Mycobacterium tuberculosis; MIC, 80% bacterial growth inhibition; intracellular growth; read-out: QIM
Summary of the method: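 Phenotypic high-content assay measuring M. tuberculosis multiplication inside host macrophages, run as dose response. MIC is the minimum compound concentration giving 80% bacterial growth inhibition.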

CCc1nc2cc(N3CCN(c4ccccc4)CC3)ccn2c1C(=O)NCc1ccc(C(F)(F)F)cc1 [Compound 330, 2-Ethyl-7-(4-phenylpiperazin-1-yl)-N-(4-(trifluoromethyl)benzyl)imidazo[1,2-a]pyridine-3-carboxamide]
MIC [1]: > 20 µM
MIC [2]: < 1 µM
melting point: 235.2 °C

CCc1nc2ccc(Cl)cn2c1C(=O)N(C)Cc1ccc(N2CCN(c3ccc(F)cc3)CC2)cc1 [Compound 182, 6-Chloro-2-ethyl-N-(4-(4-(4-fluorophenyl)piperazin-1-yl)benzyl)-N-methylimidazo[1,2-a]pyridine-3-carboxamide]
MIC [1]: < 1 µM
MIC [2]: 1 to 20 µM (≈ 0.506 to 10.1 µg/mL)
melting point: 148 to 149 °C

CCc1nc2ccccn2c1C(=O)NCc1ccc(/N=C/c2ccc(OC(F)(F)F)cc2)cc1 [Compound 261]
MIC [1]: > 20 µM
MIC [2]: > 20 µM
melting point: 194 °C

CCc1nc2cc(Cl)ccn2c1C(=O)NCc1ccc(N2CCC(Oc3ccc(F)cc3)CC2)cc1 [Compound 167, 7-Chloro-2-ethyl-N-(4-(4-(4-fluorophenoxy)piperidin-1-yl)benzyl)imidazo[1,2-a]pyridine-3-carboxamide]
MIC [1]: < 1 µM
MIC [2]: < 1 µM
melting point: 138 to 139 °C

CCc1nc2cc(Cl)ccn2c1C(=O)NCc1ccc(N2CCN(c3ccc(F)cc3)CC2)cc1 [Compound 176, 7-Chloro-2-ethyl-N-(4-(4-(4-fluorophenyl)piperazin-1-yl)benzyl)imidazo[1,2-a]pyridine-3-carboxamide]
MIC [1]: < 1 µM
MIC [2]: < 1 µM
melting point: 212 to 213 °C

CCc1nc2cc(Br)ccn2c1C(=O)NCc1ccc(N2CCOCC2)cc1 [Compound 324, 7-Bromo-2-ethyl-N-(4-morpholinobenzyl)imidazo[1,2-a]pyridine-3-carboxamide]
MIC [1]: < 1 µM
MIC [2]: < 1 µM
melting point: 202.6 °C

CCc1nc2ccc(Cl)cn2c1C(=O)NCc1ccc(Oc2ccc(F)cc2)cc1 [Compound 187, 6-Chloro-2-ethyl-N-(4-(4-fluorophenoxy)benzyl)imidazo[1,2-a]pyridine-3-carboxamide]
MIC [1]: < 1 µM
MIC [2]: < 1 µM
melting point: 168 to 169 °C

CCc1nc2ccc(Cl)cn2c1C(=O)NCc1ccc(Oc2ccc(OC(F)(F)F)cc2)nc1 [Compound 194, 6-Chloro-2-ethyl-N-((6-(4-(trifluoromethoxy)phenoxy)pyridin-3-yl)methyl)imidazo[1,2-a]pyridine-3-carboxamide]
MIC [1]: 1 to 20 µM (≈ 0.491 to 9.82 µg/mL)
MIC [2]: < 1 µM
melting point: 154 to 155 °C

CCc1nc2cc(Cl)ccn2c1C(=O)NCc1ccc(N2CCC(c3ccc(F)cc3)CC2)cc1 [Compound 287, 7-Chloro-2-ethyl-N-(4-(4-(4-fluorophenyl)piperidin-1-yl)benzyl)imidazo[1,2-a]pyridine-3-carboxamide]
MIC [1]: < 1 µM
MIC [2]: < 1 µM
melting point: 182.7 °C

CCc1nc2ccc(Br)cn2c1C(=O)NCc1ccc(N2CCN(c3ccc(F)cc3)CC2)cc1 [Compound 307, 6-Bromo-2-ethyl-N-(4-(4-(4-fluorophenyl)piperazin-1-yl)benzyl)imidazo[1,2-a]pyridine-3-carboxamide]
MIC [1]: < 1 µM
MIC [2]: < 1 µM
melting point: 218.1 °C

CCc1nc2cc(C)ccn2c1C(=O)NCc1ccc(N2CCN(c3ccc(F)cc3)CC2)cc1 [Compound 309, 2-Ethyl-N-(4-(4-(4-fluorophenyl)piperazin-1-yl)benzyl)-7-methylimidazo[1,2-a]pyridine-3-carboxamide]
MIC [1]: < 1 µM
MIC [2]: < 1 µM
melting point: 203.7 °C

CCc1nc2ccc(Cl)cn2c1C(=O)NCC1CCN(Cc2ccc(F)cc2)CC1 [Compound 227, 6-Chloro-2-ethyl-N-((1-(4-fluorobenzyl)piperidin-4-yl)methyl)imidazo[1,2-a]pyridine-3-carboxamide]
MIC [1]: 1 to 20 µM (≈ 0.429 to 8.58 µg/mL)
MIC [2]: < 1 µM
melting point: 176 to 177 °C

CCc1nc2c[n+]([O-])ccn2c1C(=O)NCc1ccc(-c2ccc(Cl)cc2)cc1 [Compound 160, 3-(((4′-Chloro-[1,1′-biphenyl]-4-yl)methyl)carbamoyl)-2-ethylimidazo[1,2-a]pyrazine 7-oxide]
MIC [1]: > 20 µM
MIC [2]: > 20 µM
melting point: 238 °C

CCc1nc2cc(Cl)ccn2c1C(=O)NCc1ccc(N2CCC(O)CC2)cc1 [Compound 218, 7-Chloro-2-ethyl-N-(4-(4-hydroxypiperidin-1-yl)benzyl)imidazo[1,2-a]pyridine-3-carboxamide]
MIC [1]: < 1 µM
MIC [2]: > 20 µM
melting point: 179.1 to 180 °C

CCc1nc2cc(Cl)ccn2c1C(=O)NCc1ccc(Oc2ccc(OC(F)(F)F)cc2)cc1 [Compound 186, 7-Chloro-2-ethyl-N-(4-(4-(trifluoromethoxy)phenoxy)benzyl)imidazo[1,2-a]pyridine-3-carboxamide]
MIC [1]: < 1 µM
MIC [2]: < 1 µM
melting point: 141 to 142 °C

CCc1nc2ccc(Cl)cn2c1C(=O)NCc1ccc(N2CCC(COc3ccc(F)cc3)CC2)cc1 [Compound 296, 6-Chloro-2-ethyl-N-(4-(4-((4-fluorophenoxy)methyl)piperidin-1-yl)benzyl)imidazo[1,2-a]pyridine-3-carboxamide]
MIC [1]: < 1 µM
MIC [2]: < 1 µM
melting point: 171 °C

CCc1nc2ccc(Cl)cn2c1C(=O)OCc1ccc(Oc2ccccc2)cc1 [Compound 196, 4-Phenoxybenzyl 6-chloro-2-ethylimidazo[1,2-a]pyridine-3-carboxylate]
MIC [1]: 1 to 20 µM (≈ 0.407 to 8.14 µg/mL)
MIC [2]: < 1 µM
melting point: 123.3 to 123.8 °C

CCc1nc2cc(Cl)ccn2c1C(=O)NCc1ccc(N2CCN(Cc3ccc(F)cc3)CC2)cc1 [Compound 172, 7-Chloro-2-ethyl-N-(4-(4-(4-fluorobenzyl)piperazin-1-yl)benzyl)imidazo[1,2-a]pyridine-3-carboxamide]
MIC [1]: < 1 µM
MIC [2]: < 1 µM
melting point: 141 to 142 °C

CCc1nc2ccc(Cl)cn2c1C(=O)NCc1ccc(Oc2ccc(Cl)cc2)cc1 [Compound 190, 6-Chloro-N-(4-(4-chlorophenoxy)benzyl)-2-ethylimidazo[1,2-a]pyridine-3-carboxamide]
MIC [1]: < 1 µM
MIC [2]: < 1 µM
melting point: 159 to 160.7 °C

CCc1nc2ccc(Cl)cn2c1C(=O)NCc1ccc(N2CCN(c3ccc(OC(F)(F)F)cc3)CC2)cc1 [Compound 178, 6-Chloro-2-ethyl-N-(4-(4-(4-(trifluoromethoxy)phenyl)piperazin-1-yl)benzyl)imidazo[1,2-a]pyridine-3-carboxamide]
MIC [1]: < 1 µM
MIC [2]: < 1 µM
melting point: 206.5 to 207 °C

CCc1nc2cc(Cl)ccn2c1C(=O)NCc1ccc(Oc2ccc(Cl)cc2)cc1 [Compound 191, 7-Chloro-N-(4-(4-chlorophenoxy)benzyl)-2-ethylimidazo[1,2-a]pyridine-3-carboxamide]
MIC [1]: < 1 µM
MIC [2]: < 1 µM
melting point: 167.1 to 167.9 °C

CCc1nc2ccc(Cl)cn2c1C(=O)NCc1ccc(N2CCN(Cc3ccc(OC(F)(F)F)cc3)CC2)cc1 [Compound 173, 6-Chloro-2-ethyl-N-(4-(4-(4-(trifluoromethoxy)benzyl)piperazin-1-yl)benzyl)imidazo[1,2-a]pyridine-3-carboxamide]
MIC [1]: < 1 µM
MIC [2]: < 1 µM
melting point: 138.1 to 138.7 °C

CCc1nc2c(F)cccn2c1C(=O)NCc1ccc(N2CCOCC2)cc1 [Compound 317, 2-Ethyl-8-fluoro-N-(4-morpholinobenzyl)imidazo[1,2-a]pyridine-3-carboxamide]
MIC [1]: < 1 µM
MIC [2]: < 1 µM
melting point: 197.3 °C

CCc1nc2cc(Cl)ccn2c1C(=O)NCc1ccc(NCc2ccc(OC(F)(F)F)cc2)cc1 [Compound 262]
MIC [1]: < 1 µM
MIC [2]: < 1 µM
melting point: 169.6 °C

CCc1nc2ccc(Cl)cn2c1COc1ccc(OC(F)(F)F)cc1 [Compound 239, 6-Chloro-2-ethyl-3-((4-(trifluoromethoxy)phenoxy)methyl)imidazo[1,2-a]pyridine]
MIC [1]: > 20 µM
MIC [2]: > 20 µM
melting point: 127 to 128 °C

CCc1nc2ccc(Cl)cn2c1C(=O)NCC1CCN(Cc2ccc(OC(F)(F)F)cc2)CC1 [Compound 226, 6-Chloro-2-ethyl-N-((1-(4-(trifluoromethoxy)benzyl)piperidin-4-yl)methyl)imidazo[1,2-a]pyridine-3-carboxamide]
MIC [1]: < 1 µM
MIC [2]: < 1 µM
melting point: 171 to 172 °C

CCc1nc2cc(Cl)ccn2c1C(=O)NCc1ccc(N2CC(C)OC(C)C2)cc1 (stereo not drawn) [Compound 210, 7-Chloro-N-(4-(2,6-dimethylmorpholino)benzyl)-2-ethylimidazo[1,2-a]pyridine-3-carboxamide]
MIC [1]: 1 to 20 µM (≈ 0.427 to 8.54 µg/mL)
MIC [2]: < 1 µM
melting point: 165 to 166 °C

CCc1nc2ccc(Cl)cn2c1C(=O)NCCc1ccc(OC)cc1 [Compound 157, 6-Chloro-2-ethyl-N-(4-methoxyphenethyl)imidazo[1,2-a]pyridine-3-carboxamide]
MIC [1]: < 1 µM
MIC [2]: < 1 µM
melting point: 129 to 130 °C

CCc1nc2cc(N3CCN(C)CC3)ccn2c1C(=O)NCc1ccc(N2CCOCC2)cc1 [Compound 328, 2-Ethyl-7-(4-methylpiperazin-1-yl)-N-(4-morpholinobenzyl)imidazo[1,2-a]pyridine-3-carboxamide]
MIC [1]: > 20 µM
MIC [2]: > 20 µM
melting point: 204.8 °C

CCc1nc2ccc(Cl)cn2c1C(=O)NCc1ccc(N2CCC3CCCCC3C2)cc1 (stereo not drawn) [Compound 267, 6-Chloro-2-ethyl-N-(4-(octahydroisoquinolin-2(1H)-yl)benzyl)imidazo[1,2-a]pyridine-3-carboxamide]
MIC [1]: < 1 µM
MIC [2]: < 1 µM
melting point: 141.7 °C
